Results published in ChEMBL document CHEMBL1759919, “1α,25-Dihydroxyvitamin D3-3β-bromoacetate, a potential cancer therapeutic agent: synthesis and molecular mechanism of action” (Bioorg Med Chem Lett, 2011).
Active and inactive are the calls of the source. No cut-off for these calls is given here.

Key:
Type in all cases: functional, cell-based
A498 [1] = assay: Induction of CYP24 mRNA expression in human A498 cells at 10^-8 M after 4 hrs by RT-PCR analysis
A498 [2] = assay: Induction of CYP24 mRNA expression in human A498 cells at 10^-8 M after 16 hrs by RT-PCR analysis
A498 [3] = assay: Induction of CYP24 mRNA expression in human A498 cells at 10^-6 M after 24 hrs by RT-PCR analysis

| Compound | Activity (A498 [1]) | Activity (A498 [2]) | Activity (A498 [3]) |
| --- | --- | --- | --- |
| C=C1/C(=C\C=C2/CCC[C@]3(C)[C@@H]([C@H](C)CCCC(C)(C)O)CC[C@@H]23)C[C@@H](O)C[C@@H]1O | Active | Active |  |
| C=C1/C(=C\C=C2/CCC[C@]3(C)[C@@H]([C@H](C)CCCC(C)(C)O)CC[C@@H]23)C[C@@H](OC(=O)CBr)C[C@@H]1O |  | Active | Active |
